# Columns and labels:
# [1] = target: T1, cPLA2α (Homo sapiens, UniProt P47712); conditions: cellular and enzymatic assays; cited from earlier work
# T1 sequence (P47712 1-749): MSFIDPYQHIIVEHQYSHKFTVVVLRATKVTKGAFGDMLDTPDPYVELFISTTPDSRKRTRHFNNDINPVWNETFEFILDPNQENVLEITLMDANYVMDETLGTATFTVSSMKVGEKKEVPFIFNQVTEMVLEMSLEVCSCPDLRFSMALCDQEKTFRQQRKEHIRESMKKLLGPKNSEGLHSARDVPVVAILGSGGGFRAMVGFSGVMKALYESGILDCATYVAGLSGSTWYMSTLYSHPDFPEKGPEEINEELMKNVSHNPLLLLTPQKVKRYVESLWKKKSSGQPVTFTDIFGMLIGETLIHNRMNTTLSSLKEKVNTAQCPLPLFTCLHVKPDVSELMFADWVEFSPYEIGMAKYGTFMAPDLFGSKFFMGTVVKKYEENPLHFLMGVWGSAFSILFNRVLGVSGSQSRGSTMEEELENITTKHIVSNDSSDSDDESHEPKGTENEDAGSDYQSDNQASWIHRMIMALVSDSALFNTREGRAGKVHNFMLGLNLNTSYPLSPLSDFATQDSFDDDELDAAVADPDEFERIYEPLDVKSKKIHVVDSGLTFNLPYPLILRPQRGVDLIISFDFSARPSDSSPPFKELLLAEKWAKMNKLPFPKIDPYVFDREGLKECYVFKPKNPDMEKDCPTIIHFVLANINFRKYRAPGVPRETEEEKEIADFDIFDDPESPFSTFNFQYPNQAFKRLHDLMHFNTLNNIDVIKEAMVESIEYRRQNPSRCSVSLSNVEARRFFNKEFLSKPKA
# [2] = Small scale in vitro permeation/penetration experiment, Franz diffusion cell; assay type: in vitro ADME, human
# From the text: Commonly, in vitro skin permeation experiments involve the use of a diffusion cell designed to mimic the physiological and anatomical conditions of skin in situ. The model used in this experiment was the Franz diffusion cell (Finnin et al. Topical and Transdermal Drug Delivery 2012: 85-100, Benson and Watkinson (Eds), incorporated herein by reference). Skin prepared as described below was positioned between the two halves of the cell with the Stratum corneum facing the donor compartment allowing for drug application. The aim of the work was to compare the drug concentrations permeating into and across dermatomed human skin when applied from different formulations/solvent systems. […]
# Two solvent systems were selected for a small scale in vitro drug permeation study and was dosed as described below: • (i) The cells were assembled as described above. • (ii) Nine cells were assembled. Two solvent system (n=3), respective placebo solvent system (n=1) and a blank cell (n=1) were assessed during the feasibility experiment. • (iii) The selected solvent systems (6 mg) were applied directly to the surface of the skin with a positive displacement pipette (resulting in a dose of approximately 10 mg/cm^2). […] Weights and volumes applied (to ensure a 6 mg dose) were recorded. • (iv) Receiver fluid (200 μL) was removed at the following time points t=0, 1, 2, 4, 6, 24, 30 and 48 h. […]
# [3] = tested on: PMA-mediated skin oedema; test: PMA-induced inflammation in mice (ear thickness by calliper); assay type: in vivo, Balb/C laboratory mice
# Method: Phorbol 12-myristate 13-acetate (PMA) is commonly used to induce inflammation and oedema of the skin of laboratory animals as a preclinical inflammation model.
# In the present example PMA was dissolved in a 10% ethanol solution to a final concentration of 0.4 μg per μl. A 10 μl was applied to the ears of Balb/C laboratory mice 1 hour after topical application of 3-{4-[2-{5-chloro-1-(diphenylmethyl)-2-[2-({[2-(trifluoromethyl)benzyl]sulfonyl}amino)ethyl]-1H-indol-3-yl}ethyl]sulfonyl}phenyl}propanoic acid (Compound I) in a 10% ethanol solution at either 0.3% or 3% w/w. As a negative control the vehicle was applied without the active compound. Positive controls were indomethacin (a non-steroidal anti-inflammatory drug) and CAY10650 (a known cPLA2α inhibitor).
# The level of oedema was monitored by measurement of ear thickness by calliper at intervals of 1, 3, 6 and 24 hours
# [4] = tested on: PLA2; conditions: read-out: IC50, inhibition of PLA2 activity; acid extracted intact human neutrophil homogenate; Marshall et al. 1995; cited from earlier work
Structure (SMILES),inhibition of cPLA2α activity (potency in words) [1],"total recovery of Compound I ([2]; for each solvent system applied (SS1, SS2), after t=48 h, single skin donor)","Compound I detected in the receiver fluid ([2]; solvent systems SS1 and SS2, 48 h experiment, irrespective of sample volume (200 μL, 1.5 mL), receiver fluid EtOH 20% v/v in water)",efficacy against PMA-mediated skin oedema relative to positive control ([3]; topical Compound I versus orally-dosed indomethacin),"reduction in PMA-mediated skin oedema ([3]; topical, 0.3% or 3% w/w in 10% ethanol solution, 1 hour before PMA on ears, ear thickness at 1, 3, 6 and 24 hours)",IC50 [4]
O=C(O)CCc1ccc(S(=O)(=O)CCc2c(CCNS(=O)(=O)Cc3ccccc3C(F)(F)F)n(C(c3ccccc3)c3ccccc3)c3ccc(Cl)cc23)cc1 [Compound I],sub-low nanomolar inhibitor,90.00-109.72 % of the applied dose,not detected,comparable to orally-dosed indomethacin,dose-dependent reduction,–
O=C(O)c1ccccc1Oc1ccc(C(F)(F)F)cc1NS(=O)(=O)c1cc(C(F)(F)F)cc(C(F)(F)F)c1 [SB 203347],–,–,–,–,–,4.7 µM

# Reference: patent publication US9693995B2, “Pharmaceutical composition for topical administration” (Ziarco Pharma Ltd., priority 2014, dated 2017)
